Results reported in patent US20120021967A1, “SYNTHETIC ANTIBODIES” (Arizona Board of Regents, A Body Corporate of the State Of …, priority 2008, published 2012).
Blank lines part the entries; values can stand above or below the molecule they belong to. Where a SMILES comes first, the peptide text is derived from it. Where no end group is shown, it is not given here.

What was measured:
[1] = molecular target: T1, human α-thrombin (Homo sapiens, UniProt P00734); assay: ELISA-type assay on thrombin-coated wells; assay type: binding; conditions: read-out: Dissociation constant estimated from ELISA-type assay
T1 construct: human α-thrombin
Procedure: Binding to thrombin was evaluated in an ELISA-type assay. Wells of a 96 well plate were coated with 100 μL of 30 μg/mL human α-thrombin and incubated at 4C overnight. The plate was washed twice with DDI H2O and passivated with 3% BSA in 1×PBS buffer for 1 hour. The plate was shaken out and 50 μL of varying concentrations of analyte (DNA tile synbody, DNA tile with each aptamer with the other not present, and each aptamer alone, respectively) were incubated at RT for 1 hour. DNA tiles were biotin-modified at the 5′ end of one of the distal DNA strands 346 (see FIG. 26(a)). The plate was rinsed 10 times in 1×PBS and 50 μL of 1:1000 dilution of streptavidin-HRP in 0.1% BSA in 1×PBS was pipetted and incubated for 1 hour at RT. The plate was again rinsed and 50 μL of TMB was added and incubated at RT for 15 minutes. 50 μL of 0.5M HCl was added and the plate was read immediately. Results are shown in FIG. 27 for the DNA tile synbody 350; the DNA tile with Apt1 but not Apt2 present 352; the DNA tile with Apt2 but not Apt1 present 356; Apt1 alone 354; and Apt2 alone 358. Dissociation constant values estimated from this assay were about 1 nM for the DNA tile synbody, about 10 nM for Apt1 alone, and more than 1 μM for Apt2 alone.

[2] = molecular target: T2, transferrin (Homo sapiens, UniProt P02787); assay: SPR (Biacore T100) steady state affinity of mRNA display clones on immobilized transferrin; assay type: binding; conditions: for Kd: steady state affinity model, 32 to 0.0625 μM
T2 sequence (P02787 20-698): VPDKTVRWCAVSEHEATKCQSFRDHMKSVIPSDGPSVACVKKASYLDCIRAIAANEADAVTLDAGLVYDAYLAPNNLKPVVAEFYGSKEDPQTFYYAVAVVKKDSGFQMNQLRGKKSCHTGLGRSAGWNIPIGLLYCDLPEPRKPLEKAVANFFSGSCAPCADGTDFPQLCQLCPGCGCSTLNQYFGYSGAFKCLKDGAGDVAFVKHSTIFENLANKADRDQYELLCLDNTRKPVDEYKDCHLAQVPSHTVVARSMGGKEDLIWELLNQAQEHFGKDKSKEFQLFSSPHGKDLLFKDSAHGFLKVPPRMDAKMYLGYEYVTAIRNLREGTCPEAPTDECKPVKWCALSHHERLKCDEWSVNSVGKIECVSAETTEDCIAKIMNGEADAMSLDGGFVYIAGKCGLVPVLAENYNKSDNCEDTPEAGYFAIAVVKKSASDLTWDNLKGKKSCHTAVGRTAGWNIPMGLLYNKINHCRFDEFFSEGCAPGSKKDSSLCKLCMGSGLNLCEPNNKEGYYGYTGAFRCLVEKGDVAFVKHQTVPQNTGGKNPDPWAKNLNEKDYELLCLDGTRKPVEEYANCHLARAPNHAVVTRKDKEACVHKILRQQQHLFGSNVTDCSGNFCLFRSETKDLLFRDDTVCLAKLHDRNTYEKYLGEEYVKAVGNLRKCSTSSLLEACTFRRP
Procedure: Five clones (see Table 15) were selected, synthesized and purified by HPLC for characterization by surface plasmon resonance (SPR) (T100 instrument from Biacore). Transferrin was immobilized using standard NHS/EDC immobilization chemistry according to the methods described in Frostell-Karlsson, A., Remaeus, A., Andersson, K., Borg, P., Hamalainen, M., and Karlsson, R. (2000) J. Med. Chem. 43, resulting in 9758 RU of immobilized protein. HPLC purified peptides were injected over the surface and sensograms were recorded at multiple concentrations (32, 16, 8, 4, 2, 1, 0.5, 0.25, 0.125. and 0.0625 μM). Affinity plots were generated for each peptide and fit using a steady state affinity model.

[3] = molecular target: T2, transferrin; assay: SPR characterization of TRF26 lead and point-mutant peptides against transferrin; assay type: binding
Source text: In this example, a small library of ˜300 variant peptides was synthesized in 96-well format. […] The lead peptide (TRF26, see Table 6) was selected as a moderate-affinity binder of the target protein transferrin. The library of variant peptides contained all possible point mutations of the lead peptide using the following set of amino acids {M,A,V,P,L,I,G,W,Y,F,S,T,N,Q,K,R,H,D,E}.
Relative affinities/specificities of the lead peptide and point-mutants were characterized using SPR as follows:
Peptide sample preparation. Lyophilized peptides were individually diluted in 96-well plates to approximately equal concentration (1 mg/ml) in 1×PBST buffer pH 7.4. Peptide sample purity was determined by MALDI-MS analysis of the diluted peptide samples.
SPR gold substrate preparation. Gold substrates used for SPR analysis were first modified with a monolayer of cysteamine by immersing the substrate in a 10 mM cysteamine/EtOH solution for 1 hour, thereby exposing a layer of primary amines just above the gold surface. After addition of the monolayer, the gold substrates were rinsed extensively with EtOH then further modified by immersing in a solution of 2 mM Sulfo-SMCC/PBS pH 7.4 for 1 hour, thereby exposing a surface-bound maleimide which can be used to covalently couple peptides to the gold substrate via the C-terminal cysteine.
Peptide spotting on gold substrate. Diluted peptide samples were spotted on the modified gold substrate using a commercial robotic spotter in an array format. The array contained ˜440 peptide spots (including replicates and blank reference spots), each spot having ˜200 um diameter. Spotted substrates were kept in a humidity chamber overnight to ensure complete reaction between the surface exposed maleimide and the C-terminal cysteine in the peptides. After ˜12-hours, the substrates were washed with PBST buffer to remove excess peptide not bound to the gold substrate. Finally, unreacted maleimide groups were quenched using a 2 mM β-mercaptoethanol/PBST solution thereby presenting a hydrophilic surface in regions not containing peptide.
Determination of target affinity using SPR. Gold substrates containing arrays of peptide variants and the lead peptide were loaded into a FlexChip SPR (Biacore) instrument. To ensure binding specificity, three injections of 0.2% BSA sample were flowed across the array using the FlexChip fluidics. The array was then washed with a continuous 1 mL/min flow of PBST buffer until the sensorgram reached a stable baseline. After reaching a baseline, the array was washed 2 additional minutes using PBST, then a 10 μM Transferrin/PBST sample was injected and continuously recycled over the array surface for 8 minutes. After the recycle the array was washed […] with continuous 1 mL/min PBST flow for 10 minutes. Sensorgrams were continuously recorded during the 2 minute prewash (to ensure baseline stability), 8 minute Transferrin sample recycle and post sample recycle wash.
Quantification of relative target affinities. Sensorgram values were taken from the stability region, that is the region ˜10 seconds into the post sample recycle wash. Sensorgram values at this point should allow identification of peptides that have both high levels of target binding and off-rates slower than the lead peptide. […] Data processing included identification of the mutated position at a particular SPR array spot as well as signal normalization relative to the lead peptide (lead peptide=1), enhanced binders have positive values and reduced binders have negative values.
Two TRF26 point-mutants (P6Y, H12F) were selected for further affinity characterization. The P6Y and H12F point-mutants have dissociation constants of 8.6±1.6 μM and 9.8±1.6 μM respectively. […] A TRF26 double mutant sequence containing the P6Y+H12F mutations was synthesized and characterized.

[4] = molecular target: T2, transferrin; assay: SPR analysis of peptide pairs for binding to distinct sites on immobilized transferrin
Source text: The transferrin target was immobilized on a Biacore T100 SPR chip, and candidate polypeptides were applied in 1:1 mixtures in pairs and response data obtained, in accordance with the methods described in Example 4 above. As illustrated in FIGS. 12A-D, upon flowing candidate polypeptides over the immobilized target, ideally one polypeptide applied alone would bind to a first binding site on the target and produce a first characteristic SPR response level (FIG. 12A), the other polypeptide would bind to a second, distinct binding site on the target, producing a second characteristic response level (FIG. 12B), and a mixture of the two polypeptides together (at the same concentrations as before) would produce a response level approximating the sum of the response levels produced by each polypeptide alone, as the polypeptides bind to distinct binding sites (FIG. 12C).

[5] = molecular target: TNF-α (Homo sapiens, UniProt P01375); assay: SPR (Biacore A100) of TNF1 lead and mutant peptides on captured TNF-α; assay type: binding; conditions: for koff: kinetic fits of sensorgrams, read-out: off-rate koff
Chain of TNF-α (P01375 77-233 limits assumed, species assumed): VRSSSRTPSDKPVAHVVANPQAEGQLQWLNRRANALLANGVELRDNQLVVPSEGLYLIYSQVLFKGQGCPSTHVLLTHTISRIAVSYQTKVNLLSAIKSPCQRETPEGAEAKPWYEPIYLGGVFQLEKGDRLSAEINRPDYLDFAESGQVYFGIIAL
Source text: Scanning Mutagenesis of the TNF1 Lead Peptide. After lead identification, the next step in the AMPLI algorithm is characterization of point mutations in the lead heteropolymer. Using short peptides makes it chemically feasible to synthesize a significant fraction of the point-mutant space, which can then be screened for enhanced point mutations. For example, all possible point mutations in the 17 randomized positions using all 20 natural amino acids could be synthesized and screened within a single 384-well plate (323 total point-mutants). However, libraries containing all 20 natural amino acids are not required for affinity optimization of protein-protein interactions. A library of TNF1 point-mutants containing all substitutions of the amino acid set {Y, A, D, S, K, N, V, W} in each of the 17 randomized positions (132 unique point-mutants) was synthesized. Tyrosine (Y), alanine (A), aspartic acid (D) and serine (S) were selected because of their effectiveness in producing high affinity interactions when substituted into the complementary-determining regions (CDRs) of synthetic antibodies (Felouse, Proceedings of the National Academy of Sciences 101(34):12467, 2004), lysine (K) was selected to balance the charge in the substitution set, asparagine (N), valine (V) and tryptophan (W) were selected to span the hydropathicity range (Kyte J & Doolittle R F, Journal of Molecular Biology 157(1):105-132, 1982). […] This concentration was used to increase the high-end dynamic range for quantifying enhancing point mutations at the expense of low-end dynamic range for quantifying detrimental point mutations.
Point-mutant libraries were prepared in 96-well stock plates From the stock plate, peptides were diluted to 50 μM concentration in Biacore HBS-EP buffer (GE Healthcare, Piscataway, N.J.) containing 1 mg/ml carboxymethyl-dextran (Sigma-Aldrich, St. Louis, Mo.) to reduce non-specific binding to the CM-5 SPR chip surface. […] Spot 3 contained only immobilized neutravidin and served as a reference spot.
Using the prepared 96-well plates and Biacore A100 SPR instrument, four peptides were flowed separately, in parallel, through the four flow cells over all 4 TNF-α spots and the neutravidin reference spot, with a 60 second association phase and 300 second dissociation phase. SPR sensorgrams were recorded for each peptide response with all 4 TNF-α spots and the neutravidin reference spot across the four flow cells on the SPR chip. […]
Purified point-mutant affinities were measured on the Biacore A100 using SPR equilibrium binding response across a series of peptide concentrations on an SPR chip with TNF-α captured as described above. […]

[6] = observed, read-out: dissociation constant
[7] = Table 13A, lead and point-mutants

Molecule: 5′-AGTCCGTGGTAGGGCAGGTTGGGGTGACT-3 [Apt1 alone]
Kd [1]: ~0.01 µM

Molecule: 5′-GGTTGGTGTGGTTGG-3′ [Apt2 alone]
Kd [1]: > 1 µM

Molecule: AHKVVPQRQIRFAYNRYGSC [H12F]
Binding ΔG ([3]; Table 13C): -6.85 ± 0.10 kcal/mol
Component Binding ΔG Contribution ([3]; Table 13C): -1.29 ± 0.14 kcal/mol
Kd Fold-Change Relative to Lead ([3]; Table 13C): 8.8 ± 2.0
Kd [3, 6]: 9.8 ± 1.6 µM

Molecule: AHKVVYQRQIRFAYNRYGSC [P6Y + H12F]
Observed Binding ΔG ([3]; Table 13D): -8.68 ± 0.15 kcal/mol
Observed Kd Fold-Change Relative to Lead ([3]; Table 13D): 190 ± 57
Predicted Binding ΔG ([3]; Table 13D, energetic additivity): -8.22 ± 0.18 kcal/mol
Kd [3, 6]: 0.5 ± 0.1 µM

Molecule: AHKVVYQRQIRHAYNRYGSC [P6Y]
Binding ΔG ([3]; Table 13C): -6.93 ± 0.11 kcal/mol
Component Binding ΔG Contribution ([3]; Table 13C): -1.37 ± 0.15 kcal/mol
Kd Fold-Change Relative to Lead ([3]; Table 13C): 10 ± 2.5
Kd [3, 6]: 8.6 ± 1.6 µM

Molecule: FERSYLKMPWKFLQSRQGSC [TNF1-opt]
koff [5]: 0.2 ± 0.02 s⁻¹

Other lines, results leading:

Kd [2]: > 300 µM
Molecule: CC(C)C[C@H](NC(=O)[C@H](CCCNC(=N)N)NC(=O)[C@@H]1CCCN1C(=O)[C@@H]1CCCN1C(=O)[C@H](CC(=O)O)NC(=O)[C@@H]1CCCN1C(=O)[C@H](C)NC(=O)[C@@H]1CCCN1C(=O)[C@H](CS)NC(=O)[C@H](Cc1c[nH]c2ccccc12)NC(=O)CNC(=O)[C@@H](NC(=O)[C@@H]1CCCN1)[C@@H](C)O)C(=O)N[C@@H](Cc1c[nH]cn1)C(=O)N1CCC[C@H]1C(=O)N[C@@H](CC(C)C)C(=O)N[C@@H](Cc1c[nH]cn1)C(=O)NCC(=O)N[C@@H](CO)C(=O)N[C@@H](CS)C(=O)O [TBPM003] (H-PTGWCPAPDPPRLHPLHGSC-OH)

Kd [2]: > 300 µM
Molecule: C[C@H](N)C(=O)N[C@H](C(=O)N[C@@H](CCCNC(=N)N)C(=O)N[C@@H](Cc1c[nH]c2ccccc12)C(=O)N[C@@H](CS)C(=O)N1CCC[C@H]1C(=O)N[C@@H](CO)C(=O)N[C@@H](C)C(=O)N[C@@H](CCCNC(=N)N)C(=O)N1CCC[C@H]1C(=O)N[C@@H](C)C(=O)N[C@H](C(=O)N1CCC[C@H]1C(=O)N[C@H](C(=O)N[C@H](C(=O)N[C@@H](C)C(=O)N[C@H](C(=O)NCC(=O)N[C@@H](CO)C(=O)N[C@@H](CS)C(=O)O)[C@@H](C)O)[C@@H](C)O)[C@@H](C)O)[C@@H](C)O)[C@@H](C)O [TBPM021] (H-ATRWCPSARPATPTTATGSC-OH)

binding sites on transferrin (pairs applied in 1:1 mixtures) [4]: bind distinct sites on transferrin
Binding ΔG ([3]; Table 13C): -5.56 ± 0.10 kcal/mol
Kd ([3]; Table 13C, read-out: Kd): 85 ± 14 µM
Molecule: AHKVVPQRQIRHAYNRYGSC [TRF26]

affinity improvement in comparison to the original peptide TRF26 [2]: more than 10 fold
Molecule: AHKVVPQRQMRHAYSRYGSC [TBPM023]

Binding ΔG [5, 7]: -5.21 ± 0.07 kcal/mol
Kd [5, 7]: 160 ± 19 µM
koff [5]: 1.6 ± 0.5 s⁻¹
Molecule: FERDPLMMPWSFLQSRQGSC [TNF1]
